Read-outs that look alike come from different tables or passages of the source.
Assays:
αvβ3 integrin = molecular target: T1, αvβ3 integrin (Homo sapiens, UniProt P05106+P06756); test: In vitro binding assay: displacement of 125I-echistatin on M21 human melanoma cells
T1 construct: endogenous in cells; host or cells: M21 human melanoma cells

[1] = M21 cells, 125I-echistatin, 2 h room temperature, read-out: IC50

T1 sequence (P06756 31-889 limits assumed): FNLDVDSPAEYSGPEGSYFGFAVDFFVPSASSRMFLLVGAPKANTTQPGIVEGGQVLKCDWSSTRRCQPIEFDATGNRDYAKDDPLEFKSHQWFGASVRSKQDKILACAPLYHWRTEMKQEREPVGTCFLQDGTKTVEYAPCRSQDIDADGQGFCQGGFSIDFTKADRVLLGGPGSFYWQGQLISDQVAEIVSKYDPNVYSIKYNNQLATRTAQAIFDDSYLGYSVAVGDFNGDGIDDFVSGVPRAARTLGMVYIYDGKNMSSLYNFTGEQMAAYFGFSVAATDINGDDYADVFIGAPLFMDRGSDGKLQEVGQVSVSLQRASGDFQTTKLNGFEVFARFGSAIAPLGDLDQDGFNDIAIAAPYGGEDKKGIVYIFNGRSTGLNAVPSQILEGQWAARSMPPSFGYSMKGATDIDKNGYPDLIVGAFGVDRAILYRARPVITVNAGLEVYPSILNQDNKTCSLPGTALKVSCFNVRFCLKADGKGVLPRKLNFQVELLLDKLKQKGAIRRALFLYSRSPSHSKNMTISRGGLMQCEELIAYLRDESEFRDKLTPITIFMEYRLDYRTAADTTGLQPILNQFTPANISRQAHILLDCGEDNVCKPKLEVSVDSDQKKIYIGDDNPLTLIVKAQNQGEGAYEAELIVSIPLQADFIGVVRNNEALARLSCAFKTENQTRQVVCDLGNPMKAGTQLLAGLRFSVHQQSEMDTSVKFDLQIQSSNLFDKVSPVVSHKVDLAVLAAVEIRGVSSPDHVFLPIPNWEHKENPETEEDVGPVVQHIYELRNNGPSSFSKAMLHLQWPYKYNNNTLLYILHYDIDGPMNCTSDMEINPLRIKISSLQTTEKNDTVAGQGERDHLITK
T1 sequence (P06756 891-1048 partner limits assumed): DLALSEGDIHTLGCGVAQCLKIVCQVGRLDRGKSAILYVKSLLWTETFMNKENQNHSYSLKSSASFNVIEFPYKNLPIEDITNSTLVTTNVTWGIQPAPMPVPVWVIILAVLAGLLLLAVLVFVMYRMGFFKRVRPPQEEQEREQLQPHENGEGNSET
T1 sequence (P05106 27-788): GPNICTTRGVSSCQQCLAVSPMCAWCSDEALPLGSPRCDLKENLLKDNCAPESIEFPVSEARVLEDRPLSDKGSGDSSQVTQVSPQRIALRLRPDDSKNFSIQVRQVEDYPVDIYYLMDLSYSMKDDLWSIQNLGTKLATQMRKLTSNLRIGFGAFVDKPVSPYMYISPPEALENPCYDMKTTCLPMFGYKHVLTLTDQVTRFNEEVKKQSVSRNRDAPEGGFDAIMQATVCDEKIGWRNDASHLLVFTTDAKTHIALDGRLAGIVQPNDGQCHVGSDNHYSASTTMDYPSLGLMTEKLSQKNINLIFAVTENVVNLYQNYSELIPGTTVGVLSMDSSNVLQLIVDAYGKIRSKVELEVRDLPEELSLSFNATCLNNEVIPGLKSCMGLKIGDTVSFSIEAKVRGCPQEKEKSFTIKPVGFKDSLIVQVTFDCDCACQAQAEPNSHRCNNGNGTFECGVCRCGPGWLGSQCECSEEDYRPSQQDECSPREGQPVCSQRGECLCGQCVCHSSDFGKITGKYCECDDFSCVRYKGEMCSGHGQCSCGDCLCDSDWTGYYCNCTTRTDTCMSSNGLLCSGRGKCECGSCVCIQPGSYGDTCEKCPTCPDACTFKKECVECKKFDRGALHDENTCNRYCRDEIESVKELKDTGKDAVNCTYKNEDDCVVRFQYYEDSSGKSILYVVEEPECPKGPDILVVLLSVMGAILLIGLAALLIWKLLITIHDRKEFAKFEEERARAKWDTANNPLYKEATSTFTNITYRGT

Compound | IC50 (αvβ3 integrin; IC50 (nM)) [nM] | logP | other results
N=C(N)NCCC[C@@H]1NC(=O)[C@H](CCCCNC(=O)CCOCCOCCOCCOCCOCCOCCOCCOCCNC(=O)CCP(=O)(O)CN2CCN(CP(=O)(O)CCC(=O)NCCOCCOCCOCCOCCOCCOCCOCCOCCC(=O)NCCCC[C@@H]3NC(=O)[C@@H](Cc4ccccc4)NC(=O)[C@H](CC(=O)O)NC(=O)CNC(=O)[C@H](CCCNC(=N)N)NC3=O)CCN(CP(=O)(O)CCC(=O)NCCOCCOCCOCCOCCOCCOCCOCCOCCC(=O)NCCCC[C@@H]3NC(=O)[C@@H](Cc4ccccc4)NC(=O)[C@H](CC(=O)O)NC(=O)CNC(=O)[C@H](CCCNC(=N)N)NC3=O)CC2)NC(=O)[C@@H](Cc2ccccc2)NC(=O)[C@H](CC(=O)O)NC(=O)CNC1=O [Compound R3PEG8P9] |  |  | IC50 (αvβ3 integrin; [1]): 50 nM
Echistatin [reference compound] |  |  | log IC50 (αvβ3 integrin): −9.01 ± 0.033; IC50 (αvβ3 integrin; read-out: IC50): 0.98 nM
N=C(N)NCCC[C@@H]1NC(=O)[C@H](CCCCNC(=O)CCCCCNC(=O)CC[PH](=O)CN2CCN(CP(=O)(O)CCC(=O)NCCCCCC(=O)NCCCC[C@@H]3NC(=O)[C@H](Cc4ccccc4)NC(=O)[C@H](CC(=O)O)NC(=O)CNC(=O)[C@H](CCCNC(=N)N)NC3=O)CCN(CP(=O)(O)CCC(=O)NCCCCCC(=O)NCCCC[C@@H]3NC(=O)[C@H](Cc4ccccc4)NC(=O)[C@H](CC(=O)O)NC(=O)CNC(=O)[C@H](CCCNC(=N)N)NC3=O)CC2)NC(=O)[C@H](Cc2ccccc2)NC(=O)[C@H](CC(=O)O)NC(=O)CNC1=O (some centres unmarked) [Compound R3HexP9] | 85 |  | 
N=C(N)NCCC[C@@H]1NC(=O)[C@H](CCCCNC(=O)CC[C@H](NC(=O)CCP(=O)(O)CN2CCN(CP(=O)(O)CCC(=O)N[C@@H](CCC(=O)NCCCC[C@@H]3NC(=O)[C@@H](Cc4ccccc4)NC(=O)[C@H](CC(=O)O)NC(=O)CNC(=O)[C@H](CCCNC(=N)N)NC3=O)C(=O)O)CCN(CP(=O)(O)CCC(=O)N[C@@H](CCC(=O)NCCCC[C@@H]3NC(=O)[C@@H](Cc4ccccc4)NC(=O)[C@H](CC(=O)O)NC(=O)CNC(=O)[C@H](CCCNC(=N)N)NC3=O)C(=O)O)CC2)C(=O)O)NC(=O)[C@@H](Cc2ccccc2)NC(=O)[C@H](CC(=O)O)NC(=O)CNC1=O [Ga-R3GlutP9] |  | -4.03 ± 0.12 | 
N=C(N)NCCC[C@@H]1NC(=O)[C@H](CCCCNC(=O)CCP(=O)(O)CN2CCN(CP(=O)(O)CCC(=O)O)CCN(CP(=O)(O)CCC(=O)NCCCC[C@@H]3NC(=O)[C@@H](Cc4ccccc4)NC(=O)[C@H](CC(=O)O)NC(=O)CNC(=O)[C@H](CCCNC(=N)N)NC3=O)CC2)NC(=O)[C@@H](Cc2ccccc2)NC(=O)[C@H](CC(=O)O)NC(=O)CNC1=O [Compound R2P9] | 370 |  | 
N=C(N)NCCC[C@@H]1NC(=O)[C@H](CCCCNC(=O)CCCCCNC(=O)CCP(=O)(O)CN2CCN(CP(=O)(O)CCC(=O)NCCCCCC(=O)NCCCC[C@@H]3NC(=O)[C@@H](Cc4ccccc4)NC(=O)[C@H](CC(=O)O)NC(=O)CNC(=O)[C@H](CCCNC(=N)N)NC3=O)CCN(CP(=O)(O)CCC(=O)NCCCCCC(=O)NCCCC[C@@H]3NC(=O)[C@@H](Cc4ccccc4)NC(=O)[C@H](CC(=O)O)NC(=O)CNC(=O)[C@H](CCCNC(=N)N)NC3=O)CC2)NC(=O)[C@@H](Cc2ccccc2)NC(=O)[C@H](CC(=O)O)NC(=O)CNC1=O [Ga-R3HexP9] |  | -3.99 ± 0.13 | 
N=C(N)NCCC[C@@H]1NC(=O)[C@H](CCCCNC(=O)CCOCCOCCOCCOCCNC(=O)CCP(=O)(O)CN2CCN(CP(=O)(O)CCC(=O)NCCOCCOCCOCCOCCC(=O)NCCCC[C@@H]3NC(=O)[C@@H](Cc4ccccc4)NC(=O)[C@H](CC(=O)O)NC(=O)CNC(=O)[C@H](CCCNC(=N)N)NC3=O)CCN(CP(=O)(O)CCC(=O)NCCOCCOCCOCCOCCC(=O)NCCCC[C@@H]3NC(=O)[C@@H](Cc4ccccc4)NC(=O)[C@H](CC(=O)O)NC(=O)CNC(=O)[C@H](CCCNC(=N)N)NC3=O)CC2)NC(=O)[C@@H](Cc2ccccc2)NC(=O)[C@H](CC(=O)O)NC(=O)CNC1=O (single isomer, unassigned) [Ga-R3PEG4P9] |  | -3.9 ± 0.1 | 
CCN=c1cc2oc3cc(NCC)c(C)cc3c(-c3ccccc3C(=O)NCCCCCCNC(=O)CCP(=O)(O)CN3CCN(CP(=O)(O)CCC(=O)NCCCCC4NC(=O)[C@@H](Cc5ccccc5)NC(=O)[C@H](CC(=O)O)NC(=O)CNC(=O)[C@H](CCCNC(=N)N)NC4=O)CCN(CP(=O)(O)CCC(=O)NCCCC[C@@H]4NC(=O)[C@@H](Cc5ccccc5)NC(=O)[C@H](CC(=O)O)NC(=O)CNC(=O)[C@H](CCCNC(=N)N)NC4=O)CC3)c-2cc1C (some centres unmarked) [Compound R2RhoP9] | 92 |  | 
CCN=c1cc2oc3cc(NCC)c(C)cc3c(-c3ccccc3C(=O)NCCCCCCNC(=O)CCP(=O)(O)CN3CCN(CP(=O)(O)CCC(=O)NCCCC[C@@H]4NC(=O)[C@@H](Cc5ccccc5)NC(=O)[C@H](CC(=O)O)NC(=O)CNC(=O)[C@H](CCCNC(=N)N)NC4=O)CCN(CP(=O)(O)CCC(=O)NCCCC[C@@H]4NC(=O)[C@@H](Cc5ccccc5)NC(=O)[C@H](CC(=O)O)NC(=O)CNC(=O)[C@H](CCCNC(=N)N)NC4=O)CC3)c-2cc1C [Ga-R2RhoP9] |  | -1.27 ± 0.04 | 
N=C(N)NCCC[C@@H]1NC(=O)[C@H](CCCCNC(=O)CCP(=O)(O)CN2CCN(CP(=O)(O)CCC(=O)O)CCN(CP(=O)(O)CCC(=O)O)CC2)NC(=O)[C@@H](Cc2ccccc2)NC(=O)[C@H](CC(=O)O)NC(=O)CNC1=O [Ga-R1P9] |  | -3.91 ± 0.11 | 
N=C(N)NCCC[C@@H]1NC(=O)[C@H](CCCCNC(=O)CCP(=O)(O)CN2CCN(CP(=O)(O)CCC(=O)O)CCN(CP(=O)(O)CCC(=O)O)CC2)NC(=O)[C@@H](Cc2ccccc2)NC(=O)[C@H](CC(=O)O)NC(=O)CNC1=O [Compound R1P9] | 2890 |  | IC50 (αvβ3 integrin; log IC50): 2950 nM
N=C(N)NCCC[C@@H]1NC(=O)[C@H](CCCCNC(=O)CCP(=O)(O)CN2CCN(CP(=O)(O)CCC(=O)O)CCN(CP(=O)(O)CCC(=O)NCCCC[C@@H]3NC(=O)[C@@H](Cc4ccccc4)NC(=O)[C@H](CC(=O)O)NC(=O)CNC(=O)[C@H](CCCNC(=N)N)NC3=O)CC2)NC(=O)[C@@H](Cc2ccccc2)NC(=O)[C@H](CC(=O)O)NC(=O)CNC1=O [Ga-R2P9] |  | -4.12 ± 0.06 | 
N=C(N)NCCC[C@@H]1NC(=O)[C@H](CCCCNC(=O)CC[C@H](NC(=O)CCP(=O)(O)CN2CCN(CP(=O)(O)CCC(=O)N[C@@H](CCC(=O)NCCCC[C@@H]3NC(=O)[C@@H](Cc4ccccc4)NC(=O)[C@H](CC(=O)O)NC(=O)CNC(=O)[C@H](CCCNC(=N)N)NC3=O)C(=O)O)CCN(CP(=O)(O)CCC(=O)N[C@@H](CCC(=O)NCCCC[C@@H]3NC(=O)[C@@H](Cc4ccccc4)NC(=O)[C@H](CC(=O)O)NC(=O)CNC(=O)[C@H](CCCNC(=N)N)NC3=O)C(=O)O)CC2)C(=O)O)NC(=O)[C@@H](Cc2ccccc2)NC(=O)[C@H](CC(=O)O)NC(=O)CNC1=O [Compound R3GlutP9] | 125 |  | 
19F-galacto-RGD [reference compound] |  |  | IC50 (αvβ3 integrin; [1]): 319 nM; log IC50 (αvβ3 integrin; logarithmic IC50 with logarithmic error, M21 cells, 125I-echistatin, 2 h room temperature): −6.45 ± 0.157
